# Several values for one entry are separate records, joined by “and”; a condition that tells them apart may be missing. Equal values may be shown once.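 These data come from cells grown in 96-well plates and exposed to compound for 48 hours at five concentrations. GI50: concentration for 50% inhibition of growth. TGI denotes the concentration required for complete inhibition of growth.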
# How the values were obtained:
# Assay in all cases: NCI tumour cell line growth inhibition, 48 h
# SNB-78 CNS = test system: SNB-78 CNS
# RXF-631 renal = test system: RXF-631 renal
# DMS 114 small cell lung = test system: DMS 114 small cell lung
# HOP-18 NSCLC = test system: HOP-18 NSCLC
# LXFL 529 NSCLC = test system: LXFL 529 NSCLC
# M19-MEL melanoma = test system: M19-MEL melanoma
# DLD-1 colon = test system: DLD-1 colon
# KM20L2 colon = test system: KM20L2 colon
# XF 498 CNS = test system: XF 498 CNS
# P388/ADR leukemia = test system: P388/ADR leukemia
SMILES,TGI (SNB-78 CNS),TGI (RXF-631 renal),TGI (DMS 114 small cell lung),TGI (HOP-18 NSCLC),TGI (LXFL 529 NSCLC),TGI (M19-MEL melanoma),TGI (DLD-1 colon),TGI (KM20L2 colon),GI50 (SNB-78 CNS),GI50 (DMS 114 small cell lung),GI50 (XF 498 CNS),TGI (XF 498 CNS),GI50 (KM20L2 colon),GI50 (LXFL 529 NSCLC),GI50 (M19-MEL melanoma),GI50 (DLD-1 colon),GI50 (HOP-18 NSCLC),GI50 (P388/ADR leukemia),TGI (P388/ADR leukemia)
CCCCCCCCCCC(C)CCCCCCC(=O)O (configuration not stated),> 100 µM,> 100 µM,> 100 µM,> 100 µM,> 100 µM,> 100 µM,> 100 µM,,,,,,,,,,,,
CCN(CC)CCNC(=O)c1cccc2nc3ccccc3nc12,71.2 µM,,22.3 µM,> 63.4 µM,> 87.9 µM,,> 100 µM,67.8 µM,,,,,,,,,,,
O=C(CC/C(CC(=O)c1ccc(Br)cc1)=N\O)Nc1ccc(Cl)c(Cl)c1,> 100 µM,,> 100 µM,> 100 µM,> 100 µM,> 100 µM,> 100 µM,> 100 µM,,,,,,,,,,,
CN(C)CC/C(=N\Nc1ccc(Cl)cc1Cl)c1ccccc1,27.6 µM,,27.6 µM,28.7 µM,25.9 µM,31.5 µM,23.8 µM,27.5 µM,,,,,,,,,,,
CCC[CH2][Sn]1([CH2]CCC)[O]CC(C)[O]1 (configuration not stated),0.909 µM,,2.49 µM,,1.35 µM,2.23 µM,3.32 µM,6.86 µM,301 nM,1110 nM,990 nM,2.33 µM,2530 nM,149 nM,803 nM,1470 nM,,,
Cc1cccc2c(O)cc(=O)oc12,> 100 µM,,> 100 µM,> 100 µM,> 100 µM,> 100 µM,> 100 µM,> 100 µM,,,,> 100 µM,,,,,,,
CC(=O)[CH-]C(C)=O.CC(=O)[CH-]C(C)=O.CC[O-].CC[O-].[Ti+4],,,> 100 µM,,> 100 µM,,> 100 µM,,,> 100000 nM,,,,> 100000 nM,,> 100000 nM,,,
NNC(=O)C(=O)N/N=C(\CCC(=O)Nc1ccc(Cl)cc1)Cc1nc2ccccc2s1,> 100 µM,,54.8 µM,38.7 µM,> 100 µM,36.9 µM,,> 100 µM,,,,,,,,,,,
N.N.O=P([O-])([O-])C1(P(=O)([O-])[O-])CCCCCN1.[Pt+2],> 100 µM,,,> 100 µM,> 100 µM,,> 100 µM,> 100 µM,78400 nM,,,,> 100000 nM,> 100000 nM,,> 100000 nM,> 100000 nM,,
CCN(CC)C(=S)[S][Bi]([S]C(=S)N(CC)CC)[S]C(=S)N(CC)CC,2.13 µM,,0.0444 µM,0.375 µM,0.275 µM,0.314 µM,0.208 µM,1.23 µM,598 nM,19.3 nM,,,128 nM,142 nM,162 nM,40.4 nM,202 nM,,
O=C(CCC(=O)C1CCC/C1=N/O)Nc1ccc(Cl)cc1 (configuration not stated),> 100 µM,> 100 µM,,> 100 µM,> 100 µM,> 100 µM,> 100 µM,> 100 µM,,,,> 100 µM,,,,,,,
CNCCN=c1ccc2c3c1c(O)c1c(O)ccc(=O)c1c3[nH]n2CCNCCO,10.5 µM,,2.91 µM and 0.834 µM,2.18 µM and 7.73 µM and 6.04 µM,,2.72 µM and 1.13 µM,11.6 µM and 11.9 µM and 19.6 µM,6.7 µM and 12.2 µM and 1.51 µM,,,,,,,147 nM and 179 nM,,,751 nM,16.3 µM and 32.9 µM
CC(=O)[O-].O=C([CH-]C(=O)c1ccccc1)c1ccccc1.O=C([CH-]C(=O)c1ccccc1)c1ccccc1.[Sm+3],,,,,,,,36.5 µM,,,,,7330 nM,,,,,,
Cn1cccc1/C=C/c1cc(Br)c(/C=C/c2cccn2C)cc1Br,,49.4 µM,35.2 µM,28 µM,25 µM,53.7 µM,4.97 µM,58.4 µM,,,,,,,,,,,
Cc1ccc(C(=O)CC2=Nc3nnc(CCCCCCCc4nnc5n4C(=O)C(CC(=O)c4ccc(C)cc4)=N5)n3C2=O)cc1,,> 100 µM,> 100 µM,> 100 µM,> 100 µM,> 100 µM,> 100 µM,> 100 µM,,,,> 100 µM,,,,,,,
CC1(C)CC(N(C(=O)/C=C/c2ccc([N+](=O)[O-])o2)C2CCCCC2)CC(C)(C)N1,26.5 µM,23.4 µM,6.87 µM,37.4 µM,17.8 µM,16.9 µM,3.38 µM,18.8 µM,,,,23.5 µM,,,,,,,
CC(C)=CC(=O)Cc1nc2ccc([N+](=O)[O-])cc2[nH]c1=O,> 100 µM,,> 100 µM,,> 100 µM,> 100 µM,> 100 µM,> 100 µM,,,,> 100 µM,,,,,,,
COC(=O)c1nn(C(=N)c2ccc(Cl)cc2)c2c1CCC2,> 100 µM,,> 100 µM,,> 100 µM,> 100 µM,> 100 µM,> 100 µM,,,,> 100 µM,,,,,,,
Brc1cc2c(cc1Br)CN(c1ccccc1)C2,> 100 µM,,> 100 µM,,> 100 µM,> 100 µM,> 100 µM,> 100 µM,,,,> 100 µM,,,,,,,
O=NN(CCCl)C(=O)NC1CCC(CC2CCC(NC(=O)N(CCCl)N=O)CC2)CC1 (configuration not stated),> 87.3 µM,> 100 µM,> 55.1 µM,> 56.2 µM,> 100 µM,> 100 µM,> 62.4 µM,> 100 µM,,,,19.8 µM,,,,,,,5.03 µM
O=C(NC(=O)c1ccccc1[N+](=O)[O-])Nc1ccc(Oc2ncc(Cl)cn2)c(C(F)(F)F)c1,> 100 µM,,,> 100 µM,> 43.9 µM,> 100 µM,> 100 µM,< 0.0231 µM,,,,1.62 µM,,,,,,,
CCCCCCCCCCCCCCCCCC(=O)Nc1ccn(C2OC(CO)C(O)C2O)c(=O)n1 (configuration not stated),> 100 µM,,,> 100 µM,> 100 µM,> 100 µM,> 100 µM,> 100 µM,,,,,,,,,,,
CN(C)C(=O)Oc1c(-c2ccccc2)c(=O)n2c3ccccc3n3c(=O)n(C)c(=O)c1c23,> 100 µM,> 100 µM,> 100 µM,> 100 µM,> 100 µM,> 100 µM,> 100 µM,,,,,> 100 µM,,,,,,,
C[C@]12CCC(=O)C=C1CC[C@@H]1C2CC[C@]2(C)c3nn(-c4ccccc4)nc3CC12 (some centres not stated),> 100 µM,,> 100 µM,,> 100 µM,> 100 µM,> 100 µM,> 100 µM,,,,> 100 µM,,,,,,,
